One assay deals with PAIGB protein. The assay is described as follows: Immunohistochemistry of PAIGB protein in mouse calvariae. Format: in vivo. The following applies: Swiss Webster mice, 20 μg/kg/day sc onto the calvariae, 18 days. As for the experimental part: Immunohistochemical analysis of PAIGB protein express can be assessed in various animal species such as human bone biopsy samples, mouse, rat, or dog bone samples etc., that have been treated with potential bone anabolic agents. For example, Swiss Webster mice were treated with 20 μg/kg/day PTH 1-34 subcutaneously onto the calvariae for 18 days. Following the 18 days, the calvariae samples were harvested and PAIGB protein expression was analyzed using the PAIGB polyclonal antibody (FIG. 20, FIG. 21 and FIG. 22).
The mouse calvariae was gently dissected and fixed in 10% phosphate-buffered formalin. After fixation, the calvariae were decalcified in TBD-2 decalcifying agent (SHANDON, Cat. # 6764003) for 7-8 hrs, dehydrated in graded alcohol, embedded in paraffin. The calvariae was bisected perpendicular to the sagittal suture through the central portion of the parietal bones parallel to the lambdoidal and coronal sutures and embedded in paraffin. Four to six 5 μm-thick representative, non-consecutive step sections were cut. Various sections were stained with hematoxylin and eosin (H&E) (Sigma, St. Louis, Mo.) and adjacent section were used for immunohistochemistry. The bone samples were then deparafinized in xylene and rehydrated in graded ethanol and PBS. […] The peroxidase was detected using peroxidase substrate kit DAB (SK-4100, Vector Laboratories).

Assay [1] deals with PAIGB expression in U2OS cells. The experiment in a line: RT-PCR and real time PCR of PAIGB expression in U2OS cells. The following applies: 1 or 10 nM. Format: cell-based, human. Here is the method: RNA samples were subject to RT-PCR and Taq-man analysis using probe and primers to PAIGB polynucleotide sequences and GAPDH as well as 18S ribosomal RNA. RT-PCR was done using TaKaRa kit (Panvera, Shiga, Japan) according to manufacturer recommendation. RT reaction was done under following conditions: 30° C. for 10 min, 42° C. for 50 min, 99° C. for 5 min and 4° C. for 5 min. PCR conditions were: 94° C. for 5 min, 35 cycles of 94° C. for 2 min, 62° C. for 30″, 72° C. for 1 min and 30 sec, and 72° C. for 10 min. The PCR products were separated on 1% agarose gel.
Applicants performed multiplex real time PCR (TaqMan) analysis on previously DNAsed samples using gene specific probe and primers and 18S ribosomal RNA probe and primer sets purchased from Applied Biosystem. (Foster City, Calif.) The samples were DNAsed according to the protocol provided by Ambion (DNA-free kit). TaqMan probe and primers for PAIGB was identify using Primer Express computer program. The sequence for rat PAIGB TaqMan probe was 6FAM-5′[…] (SEQ ID NO: 16) forward and reverse primers were 5′[…] 3′ (SEQ ID NO:17) and 5′ […] 3′ (SEQ ID NO:18) respectively. The final concentrations for probes were 500 nM and 40 nM for PAIGB and 18S ribosomal RNA or GAPDH respectively. […]
(In qPCR the cycle at which signal appears reflects the starting amount.)

As to human PTH (1-34), in the assay on PAIGB protein, the “PAIGB protein expression in calvariae (immunohistochemistry)” value is “induced”. Further, the “PAIGB expression in human U2OS osteoblastic cells” value in assay [1] was “induction”.

Source of the values: patent publication US7258999B2, “PTH responsive gene” (Wyeth, priority 2002, dated 2007).
